Series [1] concerns Myzus persicae. In words: Myzus persicae oral test. The format is in vivo. The conditions noted are these: after 5 days. The protocol:
Solvent: 100 parts by weight of acetone
To produce a suitable active compound formulation, 1 part by weight of active compound is dissolved with the stated parts by weight of solvent and made up to the desired concentration with water.
50 μl of the active compound formulation are transferred into microtitre plates and made up to a final volume of 200 μl with 150 μl of IPL41 insect medium (33%+15% sugar). Subsequently, the plates are sealed with parafilm, which a mixed population of green peach aphids (Myzus persicae) within a second microtitre plate is able to puncture and imbibe the solution.
(§1) After 5 days, the efficacy in % is determined. 100% means that all the aphids have been killed; 0% means that no aphids have been killed.

In series [2] the test system is Myzus persicae. In words: Myzus persicae spray test. Conditions: application rate 500 g/ha, Chinese cabbage leaf discs, after 5 days. It is filed as in vivo. The protocol:
Myzus persicae—Spray Test
(§2) Solvent: 78 parts by weight of acetone • • 1.5 parts by weight of dimethylformamide
(§3) Emulsifier: alkylaryl polyglycol ether
(§4) To produce a suitable active compound formulation, 1 part by weight of active compound is dissolved with the specified parts by weight of solvent and made up to the desired concentration with water containing an emulsifier concentration of 1000 ppm. To produce further test concentrations, the formulation is diluted with emulsifier-containing water.
Discs of Chinese cabbage leaves (Brassica pekinensis) infested by all stages of the green peach aphid (Myzus persicae) are sprayed with an active compound formulation of the desired concentration.
as §1

A short description of series [3]: log P by HPLC (EEC directive 79/831 Annex V.A8). It is filed as physicochemical. The protocol:
The log P values reported in the tables and preparation examples above were determined in accordance with EEC directive 79/831 Annex V.A8 by HPLC (High Performance Liquid Chromatography) using a reversed-phase column (C18). Temperature 43° C. The calibration is effected with unbranched alkan-2-ones (having 3 to 16 carbon atoms), for which the log P values are known.

Series [4] concerns Diabrotica balteata. The experiment in a line: Diabrotica balteata spray test. It is filed as in vivo. Conditions: application rate 160 μg/well, beetle larvae on germinated wheat grains, after 7 days. The method, then:
Diabrotica balteata—Spray Test
as §2, §3, §4
Pre-swollen wheat grains (Triticum aestivum) are incubated in a multiwell plate filled with agar and a little water for one day (5 seed grains per well). The germinated wheat grains are sprayed with an active compound preparation of the desired concentration. Subsequently, each cavity is infected with 10-20 beetle larvae of Diabrotica balteata.
After 7 days, the efficacy in % is determined. 100% means that all maize plants have grown as in the untreated, uninfected control; 0% means that no maize plant has grown.

The mark [5] stands for this setting: HPLC, reversed-phase column (C18), 43° C, acidic (HCOOH), read-out: log P (HCOOH).
The mark [6] stands for this setting: Myzus persicae, po, 120 h, application rate 4 ppm, read-out: efficacy.

We go through 39 compounds from US20200037600A1, “MESOIONIC IMIDAZOPYRIDINES AS INSECTICIDES” (Bayer Aktiengesellschaft, priority 2017, published 2020).

Each structure is given as a SMILES string. Read-outs that look alike come from different tables or passages of the source.

Regarding `O=C(OCCC(F)(F)F)C(=O)c1c([O-])[n+]2ccccc2n1Cc1cnc(Cl)s1` [Example I-054], the results for the efficacy in series [1] (application rate 4 ppm) and in series [2] were 100% and 70%, respectively.

For `O=C(CCl)c1c([O-])[n+]2ccccc2n1Cc1ccc(Cl)nc1` [Example I-001], the efficacy in series [1] (application rate 20 ppm) came to 100%.

As to `CC(C)(C)OC(=O)CN(Cc1cnc(Cl)s1)c1ncccc1C1CC1` [IV-2-003], the chromatographic logP in series [3] (setting [5]) is 4.73.

On to `C#CCOC(=O)C(=O)c1c([O-])[n+]2ccccc2n1Cc1cnc(Cl)s1` [Example I-055], for which the efficacy is 100% in series [1] (application rate 4 ppm) and 90% in series [2].

For the compound `CCC(=O)c1c([O-])[n+]2ccccc2n1Cc1cnc(Cl)s1` [Example I-014], the figures for the efficacy in series [4] and in series [1] (application rate 4 ppm) were 80% and 100%, respectively.

`O=C(COCc1ccnc(Cl)c1)c1c([O-])[n+]2ccccc2n1Cc1ccc(Cl)nc1` [Example I-084, 2-[2-[(2-chloro-4-pyridyl)methoxy]acetyl]-1-[(6-chloro-3-pyridyl)methyl]imidazo[1,2-a]pyridin-4-ium-3-olate]: the chromatographic logP in series [3] amounted to 1.73.

As to `COC(=O)C(=O)c1c([O-])[n+]2ccccc2n1Cc1cnc(Cl)s1` [Example I-032], the efficacy in series [1] (application rate 4 ppm) and in series [2] was 100% in each case.

In the case of `Cc1ccc[n+]2c([O-])c(C(=O)C(=O)OCC3CC3)n(Cc3cnc(Cl)s3)c12` [Example I-047], the pest or weed control at 160 µg/disc, 160 µg/well in series [4] (Diabrotica balteata, 168 h, read-out: efficacy) worked out at 100%. The pest or weed control at 4 ppm in series [1] (setting [6]) is 100%. The pest or weed control at 500 g/ha in series [2] (Myzus persicae, foliar, 120 h, read-out: efficacy) was found to be 90%.

In the case of `Cc1cccnc1N(CC(=O)OC(C)(C)C)Cc1cnc(Cl)s1` [tert-Butyl 2-[(2-chlorothiazol-5-yl)methyl-(3-methyl-2-pyridyl)amino]acetate], the chromatographic logP in series [3] is 4.13.

The compound `CC(C)(C)OC(=O)CN(Cc1cnc(Cl)s1)c1ncccc1I` [IV-2-002] had a chromatographic logP in series [3] of 4.62.

As to `CNC(=O)c1c([O-])[n+]2ccccc2n1Cc1cnc(Cl)s1` [Example I-017], the efficacy in series [4] and in series [1] (application rate 4 ppm) was 100% in each case.

Consider `CC(=O)c1c([O-])[n+]2ccccc2n1Cc1ccc(Cl)nc1` [Example I-003], for which the efficacy is given as 90% in series [1] (application rate 4 ppm) and 100% in series [1] (application rate 20 ppm).

Compound `O=C(OCCc1ccccc1)C(=O)c1c([O-])[n+]2ccccc2n1Cc1cnc(Cl)s1` [Example I-052] came in with an efficacy in series [1] (application rate 4 ppm) of 100%.

In the case of `Cc1ccc[n+]2c(O)cn(Cc3cnc(Cl)s3)c12` [VII-1-001, 1-[(2-Chlorothiazol-5-yl)methyl]-8-methylimidazo[1,2-a]pyridin-4-ium-3-ol; 2,2,2-trifluoroacetate], the chromatographic logP in series [3] (setting [5]) was 0.75.

On to `O=C(c1cccc(C(F)(F)F)c1)c1c([O-])[n+]2ccccc2n1Cc1cncnc1` [Example I-049], for which the efficacy in series [1] (application rate 4 ppm) is given as 100%; in series [2], 90%.

For `O=C(c1c([O-])[n+]2cccc(-c3ccccc3)c2n1Cc1cnc(Cl)s1)C(F)(F)F` [Example I-109, 1-[(2-chlorothiazol-5-yl)methyl]-8-phenyl-2-(2,2,2-trifluoroacetyl)imidazo[1,2-a]pyridin-4-ium-3-olate], the chromatographic logP in series [3] (setting [5]) stood at 2.99.

Compound `O=C(Cn1cc(Cl)cn1)c1c([O-])[n+]2ccccc2n1Cc1ccc(Cl)nc1` [Example I-006] had an efficacy in series [1] (application rate 20 ppm) of 100%.

In the case of `O=C(c1c([O-])[n+]2ccccc2n1Cc1ccc(Cl)nc1)C(F)(F)F` [Example I-002], the efficacy in series [4], in series [1] (application rate 4 ppm), in series [1] (application rate 20 ppm) and in series [2] was 100% in each case.

The compound `O=C(O)CN(Cc1cnc(Cl)s1)c1ccccn1` [Example V-1-001, 2-[(2-Chlorothiazol-5-yl)methyl-(2-pyridyl)amino]acetic Acid] yielded a chromatographic logP in series [3] of 1.21.

In turn, `CC(C)(C)OC(=O)CN(Cc1cnc(Cl)s1)c1ccccn1` [tert-Butyl 2-[(2-chlorothiazol-5-yl)methyl-(2-pyridyl)amino]acetate] gave a chromatographic logP in series [3] of 3.59.

Take `O=C(Cn1cc(Cl)cn1)c1c([O-])[n+]2ccccc2n1Cc1cnc(Cl)s1` [Example I-004, 2-[2-(4-Chloropyrazol-1-yl)acetyl]-1-[(2-chlorothiazol-5-yl)methyl]imidazo[1,2-a]pyridin-4-ium-3-olate]: the pest or weed control at 20 ppm in series [1] (Myzus persicae, po, 120 h, application rate 20 ppm, read-out: efficacy) stood at 90%. The chromatographic logP in series [3] (setting [5]) came out at 1.83.

On to `Oc1cn(Cc2cnc(Cl)s2)c2c(C3CC3)ccc[n+]12` [VII-1-003, 1-[(2-chlorothiazol-5-yl)methyl]-8-cyclopropylimidazo[1,2-a]pyridin-4-ium-3-ol 2,2,2-trifluoroacetate], for which the chromatographic logP in series [3] (setting [5]) stood at 1.27.

Take `O=C(OCc1cccc(Cl)n1)C(=O)c1c([O-])[n+]2ccccc2n1Cc1cnc(Cl)s1` [Example I-042]: the efficacy in series [2] amounted to 100%.

In the case of `O=C(OCc1ccccc1)C(=O)c1c([O-])[n+]2ccccc2n1Cc1cnc(Cl)s1` [Example I-053], in series [1] (application rate 4 ppm), the efficacy amounted to 100%.

With `CCOC(=O)C(=O)c1c([O-])[n+]2ccccc2n1Cc1cnc(Cl)s1` [Example I-029, 1-[(2-chlorothiazol-5-yl)methyl]-2-(2-ethoxy-2-oxoacetyl)imidazo[1,2-a]pyridin-4-ium-3-olate], the pest or weed control at 4 ppm in series [1] (setting [6]) was 100%. Besides, the chromatographic logP in series [3] was 1.55.

On to `O=C(CBr)c1c([O-])[n+]2ccccc2n1Cc1cnc(Cl)s1` [Example I-020], for which the figures for the efficacy in series [1] (application rate 4 ppm) and in series [2] were 100% and 90%, respectively.

As to `O=C(c1c([O-])[n+]2cccc(I)c2n1Cc1cnc(Cl)s1)C(F)(F)F` [Example I-112, 1-[(2-chlorothiazol-5-yl)methyl]-8-iodo-2-(2,2,2-trifluoroacetyl)imidazo[1,2-a]pyridin-4-ium-3-olate], in series [3], the chromatographic logP was 2.37.

Regarding `O=C(c1c([O-])[n+]2cccc(C3CC3)c2n1Cc1cnc(Cl)s1)C(F)(F)F` [Example I-078, 1-[(2-chlorothiazol-5-yl)methyl]-8-cyclopropyl-2-(2,2,2-trifluoroacetyl)imidazo[1,2-a]pyridin-4-ium-3-olate], in series [3] (setting [5]), the chromatographic logP is 2.48.

Take `Oc1cn(Cc2cnc(Cl)s2)c2c(I)ccc[n+]12` [VII-1-002, 1-[(2-chlorothiazol-5-yl)methyl]-8-iodoimidazo[1,2-a]pyridin-4-ium-3-ol 2,2,2-trifluoroacetate]: the chromatographic logP in series [3] (setting [5]) was found to be 1.22.

On to `O=C(NCc1ccccc1)c1c([O-])[n+]2ccccc2n1Cc1cnc(Cl)s1` [Example I-022], for which the efficacy in series [4] stood at 100%.

For the compound `CC(C)(C)OC(=O)C(=O)c1c([O-])[n+]2ccccc2n1Cc1cnc(Cl)s1` [Example I-066], the efficacy in series [1] (application rate 4 ppm) and in series [2] was 90% throughout.

Regarding `COCC(=O)c1c([O-])[n+]2ccccc2n1Cc1ccc(Cl)nc1` [Example I-009], the efficacy in series [1] (application rate 4 ppm) and in series [1] (application rate 20 ppm) was 100% throughout.

Consider `O=C(c1c([O-])[n+]2ccccc2n1Cc1cnc(Cl)s1)C1CC1` [Example I-031], for which the efficacy in series [4] is 100%; in series [1] (application rate 4 ppm), 90%.

As to `O=C(c1c([O-])[n+]2ccccc2n1Cc1cncnc1)C(F)(F)F` [Example I-012], the efficacy in series [1] (application rate 4 ppm) and in series [1] (application rate 20 ppm) was 100% each time.

Consider `O=C(OCC(F)F)C(=O)c1c([O-])[n+]2ccccc2n1Cc1cnc(Cl)s1` [Example I-051], for which the efficacy in series [1] (application rate 4 ppm) is on record as 100%; in series [2], 90%.

`O=C(OCC(F)(F)F)C(=O)c1c([O-])[n+]2ccccc2n1Cc1cnc(Cl)s1` [Example I-036]: the efficacy in series [1] (application rate 4 ppm) was 100%; in series [2], 90%.

As for `CC(C)=CCOC(=O)C(=O)c1c([O-])[n+]2ccccc2n1Cc1cnc(Cl)s1` [Example I-057], the values for the efficacy in series [1] (application rate 4 ppm) and in series [2] were 100% and 90%, respectively.

Turning to `O=C(NCC1CC1)c1c([O-])[n+]2ccccc2n1Cc1cnc(Cl)s1` [Example I-016], the results for the efficacy in series [4] and in series [1] (application rate 4 ppm) were 100% and 90%, respectively.

Turning to `O=C(c1ccc(Cl)cc1)c1c([O-])[n+]2ccccc2n1Cc1cnc(Cl)s1` [Example I-030], the efficacy in series [4] and in series [1] (application rate 4 ppm) was 100% throughout.
